Legend:
Endogenous PPV = experiment: Inactivation of endogenous PPV of PEP by BPL, chloroform/PEG extraction method (Example 4); type: cell-based, porcine parvovirus (PPV); details: for Detected PPV Titer: 0*=below detection limit of 63 FFID50/g PEP
Method: Pancrelipase powders from 2 different lots were each dissolved in 100 mM Tris, pH=8.3, at a concentration of 100 mg/ml. Two ml non-purified PPV viral stock (prepared using standard protocols (Arella et al., Physicichemical properties, production, and purification of parvoviruses. 1990, In Tijssen, P. (ed.), CRC handbook of parvoviruses. Boca Raton, Fla.: CRC Press, 11-30)) were added to 38 ml of the pancrelipase solution. The virus was mixed with the PEP using slow shaking at room temperature for one day. Aliquots were taken from the PPV-spiked pancrelipase stocks and each was incubated with different concentrations of BPL (available from Sigma-Aldrich, St. Louis, Mo.) (except the control) for 48 hours at room temperature (20° C.). The level of viral inactivation was measured by the titration of PPV infectivity using serial dilutions of 1,000 times or more since the titer of spiked virus was high. Determination of the FFID50 was performed using the fluorescence assay as described in the PPV FFID-infectivity assay of U.S. Patent Publication No. 2009/0226414.
The experiment described in Example 1 was repeated except no additional PPV was added. Like Example 3, the infectivity assay was performed after PEG/chloroform purification.

PPV = experiment: Inactivation of PPV by BPL in higher concentration of PEP (200 mg/ml), time course, thiosulfate quench (Example 5); type: cell-based, porcine parvovirus (PPV); details: 200 mg PEP/ml
Method: The focus of this experiment was to measure the effect of increased PEP concentration on the efficiency of the inactivation procedure and to evaluate lower concentration ranges of BPL.
PPV virus stock (prepared using standard protocols (Arella et al., Physicochemical properties, production, and purification of parvoviruses. 1990, In Tijssen, P. (ed.), CRC handbook of parvoviruses. Boca Raton, Fla.: CRC Press, 11-30)) was diluted with water and this solution (containing 1.42×10^10 FFID50 PPV viruses) was used to suspend the 0.5 gram of PEP powder to yield a final concentration of 200 mg PEP/ml.
Tubes were incubated for one hour at 25° C. before the addition of BPL. BPL was added either directly to the PEP solution (for a final concentration of 0.4 vol. %) or it was first diluted ten and hundred times for final concentrations of 0.04 vol. % and 0.004 vol. %, respectively. After the addition of BPL, the solution was further mixed and incubated at 25° C. for a predetermined period (1, 2, 4, 6, or 8 hours). A sodium thiosulfate solution was freshly prepared on the day of each inactivation experiments. After the period expired for the BPL inactivation, sodium thiosulfate was added to the PEP solution, mixed intensively and incubated at least 6 hours at 4° C. to quench the excess BPL. After this step the infectivity titration experiments as described in U.S. Patent Publication No. 2009/0226414 were performed. All experiments were done using three parallel samples for each time point.

amylase = experiment: Amylase activity of pancrelipase after BPL treatment, freezing and lyophilization (USP 31 method); type: biochemical; details: for Loss of Amylase Activity: pancrelipase, freezing, lyophilization, precision 5-10%
Method: Enzymatic activity for the enzymes of a PEP (e.g., proteases, lipases, and amylases) can be determined, for example, by using the United States Pharmacopeia (USP) monographed methods (The United States Pharmacopeia and the National Formulary (USP 31/NF 26). 2008. Rockville (MD): United States Pharmacopeial Convention, Inc.).
The samples c-d from all the experiments were tested for lipase, protease, and amylase enzymatic activity using USP 31 monographed methods. See Example 11 and Table 11.
Table 11 presents the lipase, protease, and amylase activity for aliquots of the pancrelipase after BPL treatment for 30 min at 25° C. followed by freezing and lyophilization (same treatment as for samples in Example 10).

[1] = PEP # 1, endogenous PPV 3.20 × 10^3, 0.10% (v/v) BPL
[2] = PEP # 1, endogenous PPV 3.20 × 10^3, 0.25% (v/v) BPL
[3] = PEP # 2, endogenous PPV 0.10 × 10^3, 0.04% (v/v) BPL
[4] = PEP # 2, endogenous PPV 0.10 × 10^3, 0.10% (v/v) BPL
[5] = PEP # 2, endogenous PPV 0.10 × 10^3, 0.25% (v/v) BPL
[6] = PEP # 3, endogenous PPV 6.40 × 10^3, 0.10% (v/v) BPL
[7] = PEP # 3, endogenous PPV 6.40 × 10^3, 0.25% (v/v) BPL
[8] = PEP # 4, endogenous PPV 0.20 × 10^3, 0.04% (v/v) BPL
[9] = PEP # 4, endogenous PPV 0.20 × 10^3, 0.10% (v/v) BPL
[10] = PEP # 4, endogenous PPV 0.20 × 10^3, 0.25% (v/v) BPL

O=C1CCO1 [BPL, Beta-propiolactone]
Detected PPV Titer (Endogenous PPV; PEP # 1, endogenous PPV 3.20 × 10^3, 0.04% (v/v) BPL): 0.50 × 10^2 FFID50/g
PPV Titer reduction (Endogenous PPV; [1]): 10^3 FFID50/g
Detected PPV Titer (Endogenous PPV; [1]): < 0* FFID50/g
PPV Titer reduction (Endogenous PPV; [2]): 10^3 FFID50/g
Detected PPV Titer (Endogenous PPV; [2]): < 0* FFID50/g
PPV Titer reduction (Endogenous PPV; [3]): 10^3 FFID50/g
Detected PPV Titer (Endogenous PPV; [3]): < 0* FFID50/g
PPV Titer reduction (Endogenous PPV; [4]): 10^3 FFID50/g
Detected PPV Titer (Endogenous PPV; [4]): < 0* FFID50/g
PPV Titer reduction (Endogenous PPV; [5]): 10^3 FFID50/g
Detected PPV Titer (Endogenous PPV; [5]): < 0* FFID50/g
Detected PPV Titer (Endogenous PPV; PEP # 3, endogenous PPV 6.40 × 10^3, 0.04% (v/v) BPL): 4.00 × 10^2 FFID50/g
PPV Titer reduction (Endogenous PPV; [6]): 10^3 FFID50/g
Detected PPV Titer (Endogenous PPV; [6]): 0.07 × 10^2 FFID50/g
PPV Titer reduction (Endogenous PPV; [7]): 10^3 FFID50/g
Detected PPV Titer (Endogenous PPV; [7]): < 0* FFID50/g
PPV Titer reduction (Endogenous PPV; [8]): 10^3 FFID50/g
Detected PPV Titer (Endogenous PPV; [8]): < 0* FFID50/g
PPV Titer reduction (Endogenous PPV; [9]): 10^3 FFID50/g
Detected PPV Titer (Endogenous PPV; [9]): < 0* FFID50/g
PPV Titer reduction (Endogenous PPV; [10]): 10^3 FFID50/g
Detected PPV Titer (Endogenous PPV; [10]): < 0* FFID50/g
Detected PPV titer average (PPV; 0.004% BPL, 1 hr at 25° C.): 8.13 × 10^9 FFID50/g
Log10 of inactivation (PPV; 0.004% BPL, 1 hr at 25° C.): 0.4 Log10
Detected PPV titer average (PPV; 0.004% BPL, 2 hr at 25° C.): 5.96 × 10^9 FFID50/g
Log10 of inactivation (PPV; 0.004% BPL, 2 hr at 25° C.): 0.6 Log10
Detected PPV titer average (PPV; 0.004% BPL, 4 hr at 25° C.): 5.86 × 10^9 FFID50/g
Log10 of inactivation (PPV; 0.004% BPL, 4 hr at 25° C.): 0.58 Log10
Detected PPV titer average (PPV; 0.004% BPL, 6 hr at 25° C.): 6.65 × 10^9 FFID50/g
Log10 of inactivation (PPV; 0.004% BPL, 6 hr at 25° C.): 0.53 Log10
Detected PPV titer average (PPV; 0.004% BPL, 8 hr at 25° C.): 6.68 × 10^9 FFID50/g
Log10 of inactivation (PPV; 0.004% BPL, 8 hr at 25° C.): 0.53 Log10
Detected PPV titer average (PPV; 0.04% BPL, 1 hr at 25° C.): 4.01 × 10^9 FFID50/g
Log10 of inactivation (PPV; 0.04% BPL, 1 hr at 25° C.): 0.7 Log10
Detected PPV titer average (PPV; 0.04% BPL, 2 hr at 25° C.): 2.06 × 10^9 FFID50/g
Log10 of inactivation (PPV; 0.04% BPL, 2 hr at 25° C.): 1.0 Log10
Detected PPV titer average (PPV; 0.04% BPL, 4 hr at 25° C.): 1.54 × 10^9 FFID50/g
Log10 of inactivation (PPV; 0.04% BPL, 4 hr at 25° C.): 1.2 Log10
Detected PPV titer average (PPV; 0.04% BPL, 6 hr at 25° C.): 7.66 × 10^8 FFID50/g
Log10 of inactivation (PPV; 0.04% BPL, 6 hr at 25° C.): 1.5 Log10
Detected PPV titer average (PPV; 0.04% BPL, 8 hr at 25° C.): 4.91 × 10^8 FFID50/g
Log10 of inactivation (PPV; 0.04% BPL, 8 hr at 25° C.): 1.7 Log10
Detected PPV titer average (PPV; 0.4% BPL, 1 hr at 25° C.): 3.06 × 10^7 FFID50/g
Log10 of inactivation (PPV; 0.4% BPL, 1 hr at 25° C.): 2.8 Log10
Detected PPV titer average (PPV; 0.4% BPL, 2 hr at 25° C.): 8.69 × 10^6 FFID50/g
Log10 of inactivation (PPV; 0.4% BPL, 2 hr at 25° C.): 3.4 Log10
Detected PPV titer average (PPV; 0.4% BPL, 4 hr at 25° C.): 2.13 × 10^6 FFID50/g
Log10 of inactivation (PPV; 0.4% BPL, 4 hr at 25° C.): 4.0 Log10
Detected PPV titer average (PPV; 0.4% BPL, 6 hr at 25° C.): 3.26 × 10^5 FFID50/g
Log10 of inactivation (PPV; 0.4% BPL, 6 hr at 25° C.): 4.8 Log10
Detected PPV titer average (PPV; 0.4% BPL, 8 hr at 25° C.): 1.69 × 10^5 FFID50/g
Log10 of inactivation (PPV; 0.4% BPL, 8 hr at 25° C.): 5.1 Log10
Amylase activity maintained (amylase; lyophilized samples treated with 0.4% BPL and 0.8% BPL): maintained the majority
Loss of Amylase Activity (amylase; 0.4% BPL 30 min 25° C.): 11.40%
Loss of Amylase Activity (amylase; 0.8% BPL 30 min 25° C.): 28.22%

From US20140017223A1, “Pharmaceutical Compositions Comprising A Pancreatic Enzyme Preparation With Viral Infectivity Reduced Below A Significant Level And Methods Of Preparing And Using The Same” (Aptalis Pharma Canada Inc., priority 2010, published 2014)
